Data from patent US20220273759A1, “PHARMACEUTICAL ASSOCIATION FOR CONVERTING A NEOPLASTIC CELL INTO A NON-NEOPLASTIC CELL AND USES THEREOF” (HISTIDE AG, priority 2015, published 2022).
One block for each molecule: values may come before it.

Tests used:
[1] = tested on: human osteosarcoma cells, MG63; experiment: Tumor cell recoding via quantification of pRB and p53 (immunofluorescence staining, ImageJ); type: cell-based
Procedure: The cells were first fixed for 20 min with 4% paraformaldehyde/PBS at 4° C. After fixation, the cells were permeabilized in PBS containing 1% Triton X-100 for 15 min. Protein immunofluorescent visualization was performed by first treating the cells with 1% (v/v) specific monoclonal antibodies for 1 hour at 37° C. Then the samples were incubated with Alexa Fluor® 568 or 647 (F(ab′)2 fragment of IgG(H+L)) during 30 min at room temperature. The cell nuclei were counterstained in 20 ng/mL DAPI for 10 min at room temperature.
For this type of quantification the freeware image analysis ImageJ® software was used. The raw image was first converted to an 8-bit file, and then the unsharp mask feature was used (settings 1:0.2) to remove the image background (rolling ball radius 10). After smoothing, the resulting image, which appears similar to the original photomicrograph but with minimal background, was then converted to a binary image by setting a threshold. Threshold values were determined empirically by selecting a setting, which gave the most accurate binary image for a subset of randomly selected photomicrographs. The cell area was determined by manual delineation on raw fluorescent images. Total contact area and mean contact area per cell were calculated by “analyse particules” in ImageJ®. A minimum of 50 cells per condition were analyzed.
Neoplastic cells (in this example osteosarcoma cells) were cultured on pharmaceutical associations comprising PET as a bioactive carrier and one of GFR-binding compounds of SEQ ID NO: 11 to 14, 24 to 26 and 51 to 63. A rapid (24 hours) decrease of the tumor markers was observed (FIG. 7). The adhesion checkpoint then activates the tumor suppressor proteins p53 and pRB. […]

[2] = tested on: Smad1/5/8 signaling pathway; experiment: Growth factor receptor activation: western blot quantification of phospho-smad1/5/8; type: cell-based; details: Table 4; human osteosarcoma cells MG63; quantification of western blots of phospho-smad1/5/8
Procedure: After 24 hours of culture, cells were permeabilized (10% SDS, 25 mM NaCl, 10 nM pepstatin and 10 nM leupeptin in distilled water and loading buffer), boiled for 10 minutes and resolved by reducing PAGE (Invitrogen). Proteins were transferred onto nitrocellulose, blocked, and labeled with HRP-conjugated antibodies (Invitrogen). Integrin αv, α5, +3, α4, β1, β3, β5 and […] were blotted by treating the nitrocellulose with monoclonal anti-integrin (extracellular domain) αv, α5, +3, α4, β1, β3, β5 and β6 antibodies (Santa Cruz Biotechnology). Phosphor-Smad1/5/8 was blotted by treating the nitrocellulose with monoclonal anti-p-Smad1/5/8 (Santa Cruz Biotechnology). For all of the experiments the western blot was performed in triplicate, along with an additional blot for actin and coomassie blue staining to ensure constant protein load among samples.

growth factor receptors = experiment: cell-based or functional assay
[3] = Table 6, peptide in association with PET, MG63 cells
[4] = Table 4, MG63, quantification of pRB
[5] = Table 5, MG63, quantification of pRB

Molecule: AASKASSVPQEEEPLPMVYY (Non-cyclic GFR-binding peptide) [SEQ ID NO: 207]
- P53 (%) [1, 3]: 24%
- pRB (%) [1, 3]: 17%

Molecule: ASAAPSSAPTALSATSVLYY (Non-cyclic GFR-binding peptide) [SEQ ID NO: 82]
- p-Smad1/5/8 (%) [2]: 41%
- pRB (%) [1, 4]: 19%
- pRB (%) [1, 5]: 19%

Molecule: ASAAPSSVPQALEPLTILYY (Non-cyclic GFR-binding peptide) [SEQ ID NO: 77]
- p-Smad1/5/8 (%) [2]: 55%
- pRB (%) [1, 4]: 15%
- pRB (%) [1, 5]: 15%

Molecule: ASAAPSSVPQALRSVKVAKV (Non-cyclic GFR-binding peptide) [SEQ ID NO: 88]
- p-Smad1/5/8 (%) [2]: 37%
- pRB (%) [1, 4]: 18%
- pRB (%) [1, 5]: 18%

Molecule: ASAAPSSVPQALSSLSILFF (Non-cyclic GFR-binding peptide) [SEQ ID NO: 67]
- p-Smad1/5/8 (%) [2]: 38%
- pRB (%) [1, 4]: 15%
- pRB (%) [1, 5]: 15%

Molecule: ASASPSSVPQDLRSVKVAKV (Non-cyclic GFR-binding peptide) [SEQ ID NO: 90]
- p-Smad1/5/8 (%) [2]: 56%
- pRB (%) [1, 4]: 9%
- pRB (%) [1, 5]: 9%

Molecule: ASASPSSVSQDLEPLTILYY (Non-cyclic GFR-binding peptide) [SEQ ID NO: 78]
- p-Smad1/5/8 (%) [2]: 52%
- pRB (%) [1, 4]: 18%
- pRB (%) [1, 5]: 18%

Molecule: ASASPSSVSQDLSSLSILFF (Non-cyclic GFR-binding peptide) [SEQ ID NO: 68]
- p-Smad1/5/8 (%) [2]: 40%
- pRB (%) [1, 4]: 14%
- pRB (%) [1, 5]: 14%

Molecule: GIPEPSSAPTELSATSILYY (Non-cyclic GFR-binding peptide) [SEQ ID NO: 204]
- P53 (%) [1, 3]: 33%
- pRB (%) [1, 3]: 16%

Molecule: GIPEPSSAPVDLKPLSTLYV (Non-cyclic GFR-binding peptide) [SEQ ID NO: 206]
- P53 (%) [1, 3]: 32%
- pRB (%) [1, 3]: 12%

Molecule: KIPKASSVPTGGSNITVQIM (Non-cyclic GFR-binding peptide) [SEQ ID NO: 209]
- P53 (%) [1, 3]: 45%
- pRB (%) [1, 3]: 11%

Molecule: KIPKASSVSQKMEPLTMLYY (Non-cyclic GFR-binding peptide) [SEQ ID NO: 208]
- P53 (%) [1, 3]: 30%
- pRB (%) [1, 3]: 12%

Molecule: NDEGLESVPEDLSSLSVLFF (Non-cyclic GFR-binding peptide) [SEQ ID NO: 201]
- P53 (%) [1, 3]: 29%
- pRB (%) [1, 3]: 12%

Molecule: RVPSTSSAPTKMNAISMLYF (Non-cyclic GFR-binding peptide) [SEQ ID NO: 203]
- P53 (%) [1, 3]: 31%
- pRB (%) [1, 3]: 9%

Molecule: RVPSTSSVPTGQSAISTLYL (Non-cyclic GFR-binding peptide) [SEQ ID NO: 202]
- P53 (%) [1, 3]: 25%
- pRB (%) [1, 3]: 10%

Molecule: STPPTSSVPTELSPISTLYK (Non-cyclic GFR-binding peptide) [SEQ ID NO: 205]
- P53 (%) [1, 3]: 41%
- pRB (%) [1, 3]: 20%

- p-Smad1/5/8 (%) (growth factor receptors): 55%
Molecule: NDEGLESVPTEERSVKVAKV [GFR-binding compound of SEQ ID NO: 91]

- p-Smad1/5/8 (%) (growth factor receptors): 38%
Molecule: ASAAPSSVPQALSSLSILFF [GFR-binding compound of SEQ ID NO: 67]

- p-Smad1/5/8 (%) (growth factor receptors): 39%
Molecule: GIPEPSSTPTKMSPINMLYF [GFR-binding compound of SEQ ID NO: 94]

- p-Smad1/5/8 (%) (growth factor receptors): 41%
Molecule: ASAAPSSAPTALSATSVLYY [GFR-binding compound of SEQ ID NO: 82]

- p-Smad1/5/8 (%) (growth factor receptors): 78%
Molecule: NDEGLESVPTEESAISMLYL [GFR-binding compound of SEQ ID NO: 96]

- p-Smad1/5/8 (%) (growth factor receptors): 54%
Molecule: SIPKASSVPQELEPLPIVYY [GFR-binding compound of SEQ ID NO: 76]

- p-Smad1/5/8 (%) (growth factor receptors): 36%
Molecule: TKPTSTPTKLSPINMLYF [GFR-binding compound of SEQ ID NO: 65]

- p-Smad1/5/8 (%) (growth factor receptors): 75%
Molecule: HVPKPSSAPTKLEPISILYL [GFR-binding compound of SEQ ID NO: 100]

- p-Smad1/5/8 (%) (growth factor receptors): 27%
Molecule: NDEGLESVPTEESSLSILFF [GFR-binding compound of SEQ ID NO: 80]

- p-Smad1/5/8 (%) (growth factor receptors): 22%
Molecule: KASKASSVPQKLEPLPIVYY [GFR-binding compound of SEQ ID NO: 85]

- p-Smad1/5/8 (%) (growth factor receptors): 39%
Molecule: SSVKSQPSRVHHSPISILFI [GFR-binding compound of SEQ ID NO: 97]

- p-Smad1/5/8 (%) (growth factor receptors): 48%
Molecule: RNVQSRPTQVQLKPLSMLYV [GFR-binding compound of SEQ ID NO: 73]

- p-Smad1/5/8 (%) (growth factor receptors): 66%
Molecule: KVGKASSVPTKLEPISILYL [GFR-binding compound of SEQ ID NO: 71]

- p-Smad1/5/8 (%) (growth factor receptors): 44%
Molecule: KIPKASSVPQELEPLPIVYY [GFR-binding compound of SEQ ID NO: 74]

- p-Smad1/5/8 (%) (growth factor receptors): 55%
Molecule: ASAAPSSVPQALEPLTILYY [GFR-binding compound of SEQ ID NO: 77]

- p-Smad1/5/8 (%) (growth factor receptors): 32%
Molecule: KIPKASSVPTELSPISVLYK [GFR-binding compound of SEQ ID NO: 87]

- p-Smad1/5/8 (%) (growth factor receptors): 56%
Molecule: ASASPSSVPQDLRSVKVAKV [GFR-binding compound of SEQ ID NO: 90]

- p-Smad1/5/8 (%) (growth factor receptors): 34%
Molecule: RVPSTSSAPTKTSATSVLYY [GFR-binding compound of SEQ ID NO: 81]

- p-Smad1/5/8 (%) (growth factor receptors): 38%
Molecule: YVPKPSSTPTKLSPINMLYF [GFR-binding compound of SEQ ID NO: 66]

- p-Smad1/5/8 (%) (growth factor receptors): 44%
Molecule: TQVKMRPVQVRKI [GFR-binding compound of SEQ ID NO: 92]

- p-Smad1/5/8 (%) (growth factor receptors): 37%
Molecule: ASAAPSSVPQALRSVKVAKV [GFR-binding compound of SEQ ID NO: 88]

- p-Smad1/5/8 (%) (growth factor receptors): 66%
Molecule: YVPKPSSAPTKLNAISVLYF [GFR-binding compound of SEQ ID NO: 99]

- p-Smad1/5/8 (%) (growth factor receptors): 52%
Molecule: VPTGQSAISMLYL [GFR-binding compound of SEQ ID NO: 95]

- p-Smad1/5/8 (%) (growth factor receptors): 37%
Molecule: SIPKASSTPTELSPINMLYF [GFR-binding compound of SEQ ID NO: 64]

- p-Smad1/5/8 (%) (growth factor receptors): 47%
Molecule: KIPKASSTPTELSPINMLYF [GFR-binding compound of SEQ ID NO: 93]

- p-Smad1/5/8 (%) (growth factor receptors): 52%
Molecule: ASASPSSVSQDLEPLTILYY [GFR-binding compound of SEQ ID NO: 78]

- p-Smad1/5/8 (%) (growth factor receptors): 51%
Molecule: GIPEPSSVPQKMEPLPIVYY [GFR-binding compound of SEQ ID NO: 75]

- p-Smad1/5/8 (%) (growth factor receptors): 36%
Molecule: VSQDLRSVKVAKV [GFR-binding compound of SEQ ID NO: 89]

- p-Smad1/5/8 (%) (growth factor receptors): 34%
Molecule: RNVQSRPTQVQLSPISILFI [GFR-binding compound of SEQ ID NO: 98]

- p-Smad1/5/8 (%) (growth factor receptors): 67%
Molecule: AVPKASSAPTKLEPISILYL [GFR-binding compound of SEQ ID NO: 70]

- p-Smad1/5/8 (%) (growth factor receptors): 58%
Molecule: NDEGLESVPTEEEPLTILYY [GFR-binding compound of SEQ ID NO: 79]

- p-Smad1/5/8 (%) (growth factor receptors): 39%
Molecule: VVPKPSSAPTQLEPISILYL [GFR-binding compound of SEQ ID NO: 69]

- p-Smad1/5/8 (%) (growth factor receptors): 26%
Molecule: RNVQSRPVPTQLSPISVLYK [GFR-binding compound of SEQ ID NO: 86]

- p-Smad1/5/8 (%) (growth factor receptors): 33%
Molecule: KVGKASSVPQKLEPLPIVYY [GFR-binding compound of SEQ ID NO: 84]

- p-Smad1/5/8 (%) (growth factor receptors): 35%
Molecule: TVPKPSSAPTQLRSVKVAKV [GFR-binding compound of SEQ ID NO: 83]

- p-Smad1/5/8 (%) (growth factor receptors): 47%
Molecule: SSVKSQPSRVHHKPLSMLYV [GFR-binding compound of SEQ ID NO: 72]

- p-Smad1/5/8 (%) (growth factor receptors): 40%
Molecule: ASASPSSVSQDLSSLSILFF [GFR-binding compound of SEQ ID NO: 68]
